Data published in patent US20100152267A1, “NOVEL RIFAMYCIN 3,4-(3-SUBSTITUTED AMINOMETHYL) FUSED PYRROLO DERIVATIVES” (priority 2008, published 2010).
In brackets after ≈: the same amount, converted by molar mass.

Legend:
Type in all cases: cell-based
[1] = test system: Staphylococcus aureus OC4172; test: MIC by microdilution broth method (NCCLS), C Strain; conditions: cation adjusted Mueller-Hinton broth, 35° C., 16-20 hours
Method: (§1) Minimum inhibitory concentration (MIC) is an indicator of in vitro antibacterial activity. […] The in vitro antimicrobial activity of representative compounds of the present invention was determined by the microdilution broth method following the test method from the National Committee for Clinical Laboratory Standards (NCCLS). This method is described in the NCCLS Document M7-A4, Vol. 17, No. 2, “Methods for Dilution Antimicrobial Susceptibility Test for Bacteria that Grow Aerobically—Fourth Edition”, which is incorporated herein by reference.
(§2) In this method two-fold serial dilutions of test compound in cation adjusted Mueller-Hinton broth were added to wells in microdilution trays. The test organisms were prepared by adjusting the turbidity of actively growing broth cultures so that the final concentration of test organism after it is added to the wells was approximately 5×10^4 CFU/well. Following inoculation of the microdilution trays, the trays were incubated at 35° C. for 16-20 hours and then read. The amount of growth in the wells containing the test compound was compared with the amount of growth in the growth-control wells (no test compound) used in each tray.
(§3) Representative compounds of the present invention were tested against a variety of pathogenic bacteria with results as listed in Table 2, below.

[2] = test system: Methicillin-resistant Staphylococcus aureus OC 2878; test: MIC by microdilution broth method (NCCLS), D Strain; conditions: read-out: MIC D Strain
Method: as §1, §2, §3

[3] = test system: Enterococcus faecium OC 3312 vancomycin resistant; test: MIC by microdilution broth method (NCCLS), A Strain; conditions: read-out: MIC A Strain
Method: as §1, §2, §3

[4] = test system: Methicillin-resistant Staphylococcus aureus OC 3726 COL; test: MIC by microdilution broth method (NCCLS), B Strain; conditions: read-out: MIC B Strain
Method: as §1, §2, §3

Structure (SMILES)	MIC [1]	MIC [2]	MIC [3]	MIC [4]
CO[C@H]1/C=C/O[C@@]2(C)Oc3c(C)c(O)c4c(O)c(c5c(CN(C)Cc6ccc(N7CCN(C)CC7)cc6)c[nH]c5c4c3C2=O)NC(=O)/C(C)=C\C=C\[C@H](C)[C@H](O)[C@@H](C)[C@@H](O)[C@@H](C)[C@H](OC(C)=O)[C@@H]1C [Compound 3]	1 mg/L (≈ 1.05 µM)	1 mg/L (≈ 1.05 µM)	2 mg/L (≈ 2.1 µM)	1 mg/L (≈ 1.05 µM)
CO[C@H]1/C=C/O[C@@]2(C)Oc3c(C)c(O)c4c(O)c(c5c(CN6CCCCC6)c[nH]c5c4c3C2=O)NC(=O)/C(C)=C\C=C\[C@H](C)[C@H](O)[C@@H](C)[C@@H](O)[C@@H](C)[C@H](OC(C)=O)[C@@H]1C [Compound 2]	4 mg/L (≈ 4.89 µM)	4 mg/L (≈ 4.89 µM)	8 mg/L (≈ 9.78 µM)	4 mg/L (≈ 4.89 µM)
CO[C@H]1/C=C/O[C@@]2(C)Oc3c(C)c(O)c4c(O)c(c5c(CNCc6ccc(N7CCN(C)CC7)cc6)c[nH]c5c4c3C2=O)NC(=O)/C(C)=C\C=C\[C@H](C)[C@H](O)[C@@H](C)[C@@H](O)[C@@H](C)[C@H](OC(C)=O)[C@@H]1C [Compound 4]	1 mg/L (≈ 1.07 µM)	0.5 mg/L (≈ 0.533 µM)	1 mg/L (≈ 1.07 µM)	0.5 mg/L (≈ 0.533 µM)
CO[C@H]1/C=C/O[C@@]2(C)Oc3c(C)c(O)c4c(O)c(c5c(CN(Cc6ccc(N7CCN(C)CC7)cc6)Cc6ccc(N7CCN(C)CC7)cc6)c[nH]c5c4c3C2=O)NC(=O)/C(C)=C\C=C\[C@H](C)[C@H](O)[C@@H](C)[C@@H](O)[C@@H](C)[C@H](OC(C)=O)[C@@H]1C [Compound 5]	0.25 mg/L (≈ 0.222 µM)	0.25 mg/L (≈ 0.222 µM)	1 mg/L (≈ 0.888 µM)	0.25 mg/L (≈ 0.222 µM)
CO[C@H]1/C=C/O[C@@]2(C)Oc3c(C)c(O)c4c(O)c(c5c(CN)c[nH]c5c4c3C2=O)NC(=O)/C(C)=C\C=C\[C@H](C)[C@H](O)[C@@H](C)[C@@H](O)[C@@H](C)[C@H](OC(C)=O)[C@@H]1C [Compound 1]	0.12 mg/L (≈ 0.16 µM)	0.25 mg/L (≈ 0.333 µM)	< 1 mg/L	0.25 mg/L (≈ 0.333 µM)
